Assay results as given in US20060188508A1, “Methods and compositions for modulating angiogenesis” (priority 2005, published 2006).
Ends that are not written are not given here.

B1: anti-CD47 monoclonal antibody, clone B6H12 (BD Pharmingen) (antibody)
chain: EVQLVESGGDLVKPGGSLKLSCAASGFTFSGYGMSWVRQTPDKRLEWVATITSGGTYTYYPDSVKGRFTISRDNAKNTLYLQIDSLKSEDTAIYFCARSLAGNAMDYWGQGTSVTVSSGGGGSGGGGSGGGGSDIVMTQSPATLSVTPGDRVSLSCRASQTISDYLHWYQQKSHESPRLLIKFASQSISGIPSRFSGSGSGSDFTLSINSVEPEDVGVYYCQNGHGFPRTFGGGTKLEIK

What was measured:
[1] = system: M2182tTA; experiment: Drug sensitivity by MTT assay (IC50); format: cell-based, human; settings: mean ± SD of three determinations
[2] = system: Clone 18; experiment: Drug sensitivity by MTT assay (IC50); format: cell-based, human; settings: for IC50: MTT assay, mean ± SD of three determinations; for Fold of resistance (Clone 18/M2182tTA): IC50 of clone 18 divided with IC50 of M2182tTA; for Killing of clone 18 cells compared with parental cells: non-taxane drugs, Table 1
[3] = system: M2182tTA cells; experiment: Preliminary taxol exposure of plated cells before selection of resistant clones; format: cell-based, human; settings: 5 days of exposure to 5 nM taxol; preliminary experiments
[4] = system: clone 18 cells; experiment: Modulation of drug cytotoxicity by added TSP-1, mimetic peptides, antibody or MDR inhibitor (MTT viability); format: cell-based, human; settings: for Effect on taxol resistance / taxol cytotoxicity in clone 18: added to culture with various taxol concentrations, MTT
[5] = system: M2182tTA cells; experiment: Modulation of drug cytotoxicity by added TSP-1, mimetic peptides, anti-CD47 antibody or pertussis toxin (MTT viability); format: cell-based, human
[6] = system: clone 18 cells; experiment: TUNEL assay of taxol-induced apoptosis; format: cell-based, human; settings: taxol plus 7.5 μg/ml purified TSP-1, 3 days
[7] = target: CD47 receptor (integrin-associated protein) (human, UniProt Q08722 19-323); experiment: cell-based or functional assay
[8] = adriamycin, etoposide, vinblastine, vincristine, epothilone B

Molecule | IC50 ([1]; Homo sapiens) | IC50 ([2]; Homo sapiens) | Fold of resistance (Clone 18/M2182tTA) [2] | Killing of clone 18 cells compared with parental cells [2] | Effect on taxol resistance / taxol cytotoxicity in clone 18 [4] | other results
COc1cccc2c1C(=O)c1c(O)c3c(c(O)c1C2=O)C[C@@](O)(C(=O)CO)C[C@@H]3O[C@H]1C[C@H](N)[C@H](O)[C@H](C)O1 [Adriamycin, adriamycin] | 0.15 ± 0.0099 µg/mL | 0.133 ± 0.0071 µg/mL | 0.83 | No evidence of reduced killing | – | –
CC(=O)O[C@@]12CO[C@@H]1C[C@H](O)[C@@]1(C)C(=O)[C@H](O)C3=C(C)[C@@H](OC(=O)[C@H](O)[C@@H](NC(=O)OC(C)(C)C)c4ccccc4)C[C@@](O)([C@@H](OC(=O)c4ccccc4)[C@H]21)C3(C)C [Docetaxel] | 2.66 ± 0.11 nM | 6.93 ± 0.05 nM | 2.62 | – | – | –
C/C(=C\c1csc(C)n1)[C@@H]1C[C@@H]2O[C@]2(C)CCC[C@H](C)[C@H](O)[C@@H](C)C(=O)C(C)(C)[C@@H](O)CC(=O)O1 [Epothilone B] | – | – | 0.9 | No evidence of reduced killing | – | IC50 [1]: 0.75 ± 0.35 nM; IC50 [2]: 0.68 ± 0.21 nM
COc1cc([C@@H]2c3cc4c(cc3[C@@H](O[C@@H]3O[C@@H]5CO[C@@H](C)O[C@H]5[C@H](O)[C@H]3O)[C@H]3COC(=O)[C@H]23)OCO4)cc(OC)c1O [Etoposide, etoposide] | 800 ± 30 nM | 650 ± 60 nM | 0.81 | No evidence of reduced killing | – | –
CC(=O)O[C@H]1C(=O)[C@@]2(C)[C@H]([C@H](OC(=O)c3ccccc3)[C@]3(O)C[C@H](OC(=O)[C@H](O)[C@@H](NC(=O)c4ccccc4)c4ccccc4)C(C)=C1C3(C)C)[C@]1(OC(C)=O)CO[C@@H]1C[C@@H]2O [Taxol, Paclitaxel] | 7.2 ± 0.11 nM | 17.5 ± 0.18 nM | 2.45 | – | – | Fold of resistance (Clone 18/M2182tTA) ([2]; listed as taxol): approximately two and a half-fold; Surviving M2182tTA cells [3]: no surviving M2182tTA cells
CC[C@]1(O)C[C@@H]2CN(CCc3c([nH]c4ccccc34)[C@@](C(=O)OC)(c3cc4c(cc3OC)N(C)[C@H]3[C@@](O)(C(=O)OC)[C@H](OC(C)=O)[C@]5(CC)C=CCN6CC[C@]43[C@@H]65)C2)C1 [Vinblastine, vinblastine] | 7.5 ± 0.18 nM | 7 ± 0.21 nM | 0.93 | No evidence of reduced killing | – | –
CC[C@]1(O)C[C@H]2CN(CCc3c([nH]c4ccccc34)[C@@](C(=O)OC)(c3cc4c(cc3OC)N(C=O)[C@H]3[C@@](O)(C(=O)OC)[C@H](OC(C)=O)[C@]5(CC)C=CCN6CC[C@]43[C@@H]65)C2)C1 [Vincristine, vincristine] | – | 12 ± 0.42 nM | 1.09 | No evidence of reduced killing | – | –
GVITRIR (human) [ABT-510] | – | – | – | – | no effect | –
KRFYGGMWKK [4NGG] | – | – | – | – | no effect | –
KRFYVVMWKK [4N1K] | – | – | – | – | dose-dependent partial reversal | –
TSP-1: TSP-1 purified from human platelets, purchased from EMD Biosciences | – | – | – | – | dose-dependent partial reversal | Survival and apoptosis with agent alone ([4]; TSP-1 alone at the dosage added to clone 18 cultures): only limited ability to reduce survival and induce apoptosis; Effect on killing of clone 18 cells by other chemotherapeutic agents [4, 8]: no effects; Effect on taxol-mediated killing of naïve M2182tTA cells ([5]; added to culture with taxol, MTT): reduced survival; Effect on sensitivity of M2182tTA cells to other chemotherapeutic drugs [5, 8]: sensitization was not observed; Taxol-induced apoptosis [6]: dramatically and synergistically increased
B1 | – | – | – | – | – | viability of M2182tTA cells to taxol treatment (MTT assay, 10 ug/ml antibody) [7]: 2.2 fold
